This note sets out measurements from PubChem BioAssay (NCI).

Molecules are shown by their SMILES. Where “and” joins values, the source holds several entries; their conditions need not be identical. Identical values can stand only once.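 In this assay, cells in 96-well plates receive the compound at five concentrations for 48 hours. Endpoints are linearly interpolated between the surrounding concentrations. GI50 is the concentration that inhibits growth by half. TGI denotes the concentration required for complete inhibition of growth.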 Some results are limits rather than exact numbers.

Some test systems named below: EKVX NSCLC; HCT-15 colon; HT29 colon; OVCAR-4 ovarian; OVCAR-8 ovarian; SK-MEL-28 melanoma; SK-OV-3 ovarian; SR leukemia; UACC-62 melanoma; HOP-62 NSCLC.
Common to all, as to assay: NCI-60 cell line screen, 48 h

On to `CCN(CC)CCCC(C)Nc1c2ccc(Cl)cc2nc2cc(OC)c(OC)cc12` (configuration not stated), for which the GI50 in the assay with EKVX NSCLC was 1.78 µM; in the assay with HCT-15 colon it was 1.2 µM; with HT29 colon, 1.54 µM; in the assay with OVCAR-4 ovarian, 1.34 µM; in the assay on OVCAR-8 ovarian it was 2.28 µM; in the assay on SK-MEL-28 melanoma, 1.72 µM. Also, the GI50 in the assay with SK-OV-3 ovarian was 2.65 µM; in the assay on SR leukemia, 1.27 µM; with UACC-62 melanoma, 2.14 µM. For the same compound, the TGI is 5.06 µM in the assay on EKVX NSCLC; 3.49 µM in the assay with HCT-15 colon; 10.3 µM in the assay on HT29 colon; 3.33 µM in the assay on OVCAR-4 ovarian; 10.3 µM in the assay with OVCAR-8 ovarian; 3.37 µM in the assay with SK-MEL-28 melanoma. The TGI was determined as 8.87 µM in the assay with SK-OV-3 ovarian, 13.6 µM in the assay on SR leukemia and 4.69 µM with UACC-62 melanoma.

For `Cc1cccc(Cl)c1NC(=O)c1cnc(Nc2cc(N3CCOCC3)cc(N3CCOCC3)c2)s1`, the GI50 is 0.213 µM with EKVX NSCLC; 0.39 µM with HCT-15 colon; 0.022 µM in the assay with HOP-62 NSCLC; 0.0181 µM in the assay with HT29 colon; above 4.05 µM with OVCAR-4 ovarian; 0.0842 µM with OVCAR-8 ovarian. The GI50 in the assay on SK-MEL-28 melanoma was above 5.32 µM; in the assay with SK-OV-3 ovarian, 0.0178 µM; in the assay with UACC-62 melanoma it was 1.7 µM. Also, the TGI is above 10 µM in the assay on EKVX NSCLC; above 10 µM in the assay on HCT-15 colon; above 10 µM with HOP-62 NSCLC; 0.19 µM in the assay on HT29 colon; above 10 µM with OVCAR-4 ovarian; above 10 µM in the assay with OVCAR-8 ovarian. In addition, the TGI was above 10 µM with SK-MEL-28 melanoma, 1.6 µM in the assay on SK-OV-3 ovarian, above 10 µM in the assay on SR leukemia and above 10 µM in the assay on UACC-62 melanoma.

For `COc1c2c(c(CC=C(C)C)c3oc(=O)c(-c4ccc(O)cc4)c(O)c13)OC(C)(C)C=C2`, the TGI was 95.8 µM with EKVX NSCLC; 60.7 µM in the assay with HCT-15 colon; 86.2 µM in the assay on HOP-62 NSCLC; above 100 µM in the assay with HT29 colon; 58 µM in the assay with OVCAR-4 ovarian; above 100 µM in the assay on OVCAR-8 ovarian. The TGI in the assay with SK-MEL-28 melanoma is 73 µM; in the assay with SR leukemia, 79.9 µM; with UACC-62 melanoma it was 46.6 µM.

For the compound `Cc1cc(Oc2cnc(=O)[nH]c2)cs1`, the TGI with EKVX NSCLC, with HCT-15 colon, in the assay on HOP-62 NSCLC, in the assay on HT29 colon, with OVCAR-8 ovarian and in the assay on SK-MEL-28 melanoma was above 100 µM throughout. Moreover, the TGI in the assay on SK-OV-3 ovarian, in the assay on SR leukemia and in the assay on UACC-62 melanoma was above 100 µM each time.

For `O=C(O)C(C(=O)C(=O)C(C(=O)O)c1ccc(Cl)cc1)c1ccc(Cl)cc1` (configuration not stated), the TGI is 13.3 µM in the assay on EKVX NSCLC; 16.9 µM in the assay on HOP-62 NSCLC; 11.1 µM with HT29 colon; 6.96 µM in the assay on OVCAR-4 ovarian; 6.23 µM in the assay on OVCAR-8 ovarian; 15.7 µM with SK-MEL-28 melanoma. Also, the TGI in the assay on SK-OV-3 ovarian was found to be 18.2 µM; in the assay on SR leukemia, 6 µM; in the assay with UACC-62 melanoma, 3.91 µM.

Turning to `O=C1C(Cl)=C(Nc2cccc(O)c2)C(=O)N1Cc1ccc(Cl)cc1`, the GI50 in the assay with EKVX NSCLC is 13.6 µM; in the assay with HOP-62 NSCLC, 4.55 µM; with OVCAR-4 ovarian it was 11.2 µM; with OVCAR-8 ovarian, 3.65 µM; in the assay on SK-MEL-28 melanoma, 4.93 µM; in the assay with SK-OV-3 ovarian, 3.7 µM. Also, the GI50 is 0.358 µM with SR leukemia and 1.27 µM in the assay on UACC-62 melanoma. Besides, the TGI in the assay on EKVX NSCLC is 48.6 µM; with HOP-62 NSCLC, 23 µM; in the assay on OVCAR-4 ovarian, above 100 µM; in the assay on OVCAR-8 ovarian, 44.4 µM; in the assay with SK-MEL-28 melanoma, 23 µM; in the assay on SK-OV-3 ovarian, 19.9 µM. For the same compound, the TGI was found to be 14.8 µM in the assay with SR leukemia and 4.79 µM in the assay on UACC-62 melanoma.

Consider `O=C(/C=C/c1cccc([N+](=O)[O-])c1)c1ccc(O)c(CN2CCN(c3cc4c(cc3F)c(=O)c(C(=O)O)cn4C3CC3)CC2)c1`, for which the GI50 in the assay on EKVX NSCLC is 1.71 µM; in the assay with HOP-62 NSCLC it was 3.47 µM; in the assay on HT29 colon, 2.44 µM; with OVCAR-4 ovarian it was 1.61 µM; in the assay with OVCAR-8 ovarian, 2.52 µM; in the assay on SK-MEL-28 melanoma it was 1.75 µM. The GI50 in the assay with SK-OV-3 ovarian was 5 µM; in the assay on SR leukemia it was 0.398 µM; with UACC-62 melanoma it was 1.66 µM. The TGI in the assay with EKVX NSCLC came to 3.32 µM; with HOP-62 NSCLC, 16.8 µM; with HT29 colon it was 6.25 µM; with OVCAR-4 ovarian, 3.07 µM; in the assay with OVCAR-8 ovarian, 8.77 µM; with SK-MEL-28 melanoma, 3.2 µM. The TGI in the assay with SK-OV-3 ovarian was above 100 µM; in the assay on SR leukemia it was 53.2 µM; with UACC-62 melanoma, 3.45 µM.

For `O=c1nc(NC(c2ccccc2)(c2ccccc2)c2ccccc2)ccn1CCO`, the TGI in the assay on EKVX NSCLC, in the assay with HCT-15 colon, in the assay on HOP-62 NSCLC, in the assay with HT29 colon, with OVCAR-4 ovarian and with OVCAR-8 ovarian was above 100 µM throughout. The TGI in the assay on SK-MEL-28 melanoma and with SR leukemia was above 100 µM in each case.

For `CN1CCN(C(=O)c2c(NC(=O)NS(=O)(=O)c3ccccc3)sc3c2CCCCC3)CC1`, the GI50 in the assay on EKVX NSCLC is 33.7 µM; in the assay on HCT-15 colon, 26.3 µM; in the assay with OVCAR-8 ovarian it was 53.5 µM; with SR leukemia, 27.5 µM; in the assay on UACC-62 melanoma, 23 µM. Moreover, the TGI was 98.7 µM in the assay with EKVX NSCLC; 74.6 µM with HCT-15 colon; above 100 µM in the assay on OVCAR-8 ovarian; above 100 µM in the assay on SR leukemia; 60 µM with UACC-62 melanoma.

In the case of `NC(=S)N/N=C/c1ccc(O)cn1`, the GI50 in the assay on EKVX NSCLC was 82.5 µM; in the assay with HCT-15 colon it was 22.1 µM and 13.3 µM; with HOP-62 NSCLC, 10.6 µM and 5.65 µM; in the assay with HT29 colon, 37.9 µM; in the assay on OVCAR-8 ovarian it was 4.71 µM; in the assay on SK-MEL-28 melanoma, 49.9 µM and 41.6 µM. For the same compound, the GI50 with SK-OV-3 ovarian is 128 µM and 25.8 µM; with UACC-62 melanoma, 2.83 µM and 3.13 µM and 1.83 µM. Further, the TGI in the assay on EKVX NSCLC was 210 µM; in the assay with HOP-62 NSCLC, 35.7 µM and 16.9 µM and 74.6 µM; with HT29 colon, above 929 µM; in the assay with OVCAR-8 ovarian, 72.3 µM and 161 µM and 393 µM; with SK-MEL-28 melanoma it was > 1500 µM and 1050 µM; with SK-OV-3 ovarian, 953 µM and 613 µM. Moreover, the TGI was above 323 µM in the assay on SR leukemia; 10.7 µM and 13.1 µM and 37.3 µM in the assay on UACC-62 melanoma.
